Measurements: patent publication US20250115654A1, “PHARMACEUTICAL COMPOSITION OF GLP-1 RECEPTOR AND GIP RECEPTOR DUAL AGONIST, AND USE THEREOF” (FUJIAN SHENGDI PHARMACEUTICAL CO., LTD., priority 2021, published 2025)
Numbered stars: 1 amine (or outer) side, 2 acyl side, 3 side chain; on linkers, the order of the positions; unused ones are H or OH. Square brackets hold non-standard residues; d marks the D form. Side chains are listed from the residue outwards. Peptide text beside a SMILES is read from it. * marks the point of attachment. C20 diacid = O=C(O)CCCCCCCCCCCCCCCCCCC(=O)*; γGlu = O=C(O)[C@H](CCC(=O)[*:2])N[*:1]; AEEA = NCCOCCOCC(=O)O; Aib = CC(C)(N)C(=O)O

Key:
DIO mice = experiment: Food intake of DIO (diet-induced obesity) mice; format: in vivo, C57BL/6 mice
Protocol: High-fat food-induced-obesity male C57BL/6 mice (weighing 35-55 g, aged 10-12 weeks, purchased from Shanghai Jiesijie Laboratory Animal Co., Ltd.) were tested. […] According to the experimental design, the body weight of each mouse was measured and recorded on day 0, day 3, day 6, and so on to day 27, the average body weight of each group of mice was calculated, and body weight change curves were plotted by taking the body weight on the first day as the standard. At the end, the fat and other visceral organs of each part of the mice were taken out and weighed, and the viscera/brain ratio for fat in each part of each mouse was calculated. The effect of the drug on the fat was determined by comparing the change in the viscera/brain ratio for fat of different parts of each group of mice.
The food intake of mice in each group was measured daily during the experiment.

db/db mice = experiment: Glucose metabolism level of db/db mice (fasting and random blood glucose, glycated hemoglobin); format: in vivo, C57BL/KsJ-db/db mice; conditions: for Glycated hemoglobin (%, mean ± SD): end of experiment day 28
Protocol: Each administration group had 10 db/db mice. According to the experimental design, tail vein blood was collected by needle pricking on days 0, 7, 14, 21, and 28 and determined for fasting blood glucose levels with a glucometer and glucose dipsticks, and the mice were fasted 6 h prior to the blood collection at each time point. Tail vein blood was collected by needle pricking on days 3, 10, 17, 24, and 27 and randomly determined for blood glucose levels with a glucometer. Finally, at the end of the experiment on day 28, all the animals in the administration groups were subjected to 2-5% isoflurane inhalation anesthesia, and 100 μL of whole blood was collected through the orbit of each mouse using an EDTA-K2 anticoagulation tube and used for the determination of glycated hemoglobin.

In the case of CC[C@H](C)[C@H](NC(=O)[C@H](CCCCN)NC(=O)[C@H](CCC(=O)O)NC(=O)[C@H](CCCCNC(=O)COCCOCCNC(=O)COCCOCCNC(=O)CC[C@H](NC(=O)CCCCCCCCCCCCCCCCCCC(=O)O)C(=O)O)NC(=O)[C@H](Cc1ccc(O)cc1)NC(=O)[C@@H](NC(=O)[C@H](CO)NC(=O)[C@H](Cc1ccc(O)cc1)NC(=O)[C@H](CC(=O)O)NC(=O)[C@H](CO)NC(=O)[C@@H](NC(=O)[C@H](Cc1ccccc1)NC(=O)[C@@H](NC(=O)CNC(=O)[C@H](CCC(=O)O)NC(=O)C(C)(C)NC(=O)[C@@H](N)Cc1ccc(O)cc1)[C@@H](C)O)[C@@H](C)O)[C@@H](C)CC)C(=O)N[C@@H](C)C(=O)N[C@@H](C)C(=O)N[C@@H](CCC(N)=O)C(=O)N[C@@H](CCC(=O)O)C(=O)N[C@@H](Cc1ccccc1)C(=O)N[C@H](C(=O)N[C@@H](CC(N)=O)C(=O)N[C@@H](Cc1c[nH]c2ccccc12)C(=O)N[C@@H](CC(C)C)C(=O)N[C@@H](CC(C)C)C(=O)N[C@@H](C)C(=O)NCC(=O)NCC(=O)N1CCC[C@H]1C(=O)N[C@@H](CO)C(=O)N[C@@H](CO)C(=O)NCC(=O)N[C@@H](C)C(=O)N1CCC[C@H]1C(=O)N1CCC[C@H]1C(=O)N1CCC[C@H]1C(=O)N[C@@H](CO)C(N)=O)C(C)C [Compound 18#] (H-Y[Aib]EGTFTSDYSIYK([AEEA-AEEA-γGlu-C20 diacid])EKIAAQEFVNWLLAGGPSSGAPPPS-NH2), the cumulative food intake (DIO mice; 10 nmol/kg, within 5 days after the administration) is reported as 3.9 g, the cumulative food intake (DIO mice; 100 nmol/kg, 28 days after the administration) is reported as 36.7 g and the “daily food intake ration” value (DIO mice; 100 nmol/kg, day 1 after administration) is reported as 0.2 ± 0.1 g. The “daily food intake ration” value (DIO mice; 100 nmol/kg, day 1 after administration, listed as 18#) was 0.2 g, the “daily food intake ration” value (DIO mice; 100 nmol/kg, day 2 after administration) was 0.1 ± 0.1 g and the “daily food intake ration” value (DIO mice; 100 nmol/kg, day 3 after administration) was 0.4 ± 0.1 g. For the same compound, the “daily food intake ration” value (DIO mice; 100 nmol/kg, day 4 after administration) was 0.4 ± 0.2 g, the “daily food intake ration” value (DIO mice; 100 nmol/kg, day 5 after administration) was 0.6 ± 0.2 g and the “daily food intake ration” value (DIO mice; 100 nmol/kg, day 6 after administration) was 0.7 ± 0.3 g. For the same compound, the “daily food intake ration” value (DIO mice; 100 nmol/kg, day 7 after administration) was 0.5 ± 0.2 g, the “daily food intake ration” value (DIO mice; 100 nmol/kg, day 8 after administration) was 0.7 ± 0.5 g and the “daily food intake ration” value (DIO mice; 100 nmol/kg, day 9 after administration) was 0.9 ± 0.6 g. The “daily food intake ration” value (DIO mice; 100 nmol/kg, day 10 after administration) was 0.9 ± 0.6 g, the “daily food intake ration” value (DIO mice; 100 nmol/kg, day 11 after administration) was 1.1 ± 0.5 g and the “daily food intake ration” value (DIO mice; 100 nmol/kg, day 12 after administration) was 2 ± 1 g. The “daily food intake ration” value (DIO mice; 100 nmol/kg, day 13 after administration) was 1.3 ± 0.7 g, the “daily food intake ration” value (DIO mice; 100 nmol/kg, day 14 after administration) was 1.7 ± 0.5 g and the “daily food intake ration” value (DIO mice; 100 nmol/kg, day 15 after administration) was 2 ± 0.4 g. The “daily food intake ration” value (DIO mice; 100 nmol/kg, day 16 after administration) was 1 ± 0.3 g, the “daily food intake ration” value (DIO mice; 100 nmol/kg, day 17 after administration) was 1.6 ± 0.3 g and the “daily food intake ration” value (DIO mice; 100 nmol/kg, day 18 after administration) was 2 ± 0.4 g. For the same compound, the “daily food intake ration” value (DIO mice; 100 nmol/kg, day 19 after administration) was 1.4 ± 0.2 g, the “daily food intake ration” value (DIO mice; 100 nmol/kg, day 20 after administration) was 1.8 ± 0.3 g and the “daily food intake ration” value (DIO mice; 100 nmol/kg, day 21 after administration) was 2.4 ± 0.3 g. For the same compound, the “daily food intake ration” value (DIO mice; 100 nmol/kg, day 22 after administration) was 1.4 ± 0.5 g, the “daily food intake ration” value (DIO mice; 100 nmol/kg, day 23 after administration) was 2.1 ± 0.5 g and the “daily food intake ration” value (DIO mice; 100 nmol/kg, day 24 after administration) was 2.3 ± 0.4 g. For the same compound, the “daily food intake ration” value (DIO mice; 100 nmol/kg, day 25 after administration) was 1.5 ± 0.3 g, the “daily food intake ration” value (DIO mice; 100 nmol/kg, day 26 after administration) was 1.6 ± 0.4 g and the “daily food intake ration” value (DIO mice; 100 nmol/kg, day 27 after administration) was 2.8 ± 0.3 g. The “daily food intake ration” value (DIO mice; 100 nmol/kg, day 28 after administration) was 1.2 ± 0.4 g, the cumulative food intake (DIO mice; 100 nmol/kg, within 5 days after the administration) was 1.8 g and the “Concentration of fasting blood glucose (mMol/L, mean ± SD)” value (db/db mice; 10 nmol/kg, Day 0) was 14.77 ± 1.30 mmol/L. The “Concentration of random blood glucose (mMol/L, mean ± SD)” value (db/db mice; 10 nmol/kg, Day 0) was 20.42 ± 1.56 mmol/L, the “Concentration of fasting blood glucose (mMol/L, mean ± SD)” value (db/db mice; 10 nmol/kg, Day 7) was 6.05 ± 0.42 mmol/L and the “Concentration of random blood glucose (mMol/L, mean ± SD)” value (db/db mice; 10 nmol/kg, Day 10) was 20.66 ± 1.48 mmol/L. The “Concentration of fasting blood glucose (mMol/L, mean ± SD)” value (db/db mice; 10 nmol/kg, Day 14) was 6.30 ± 0.46 mmol/L, the “Concentration of random blood glucose (mMol/L, mean ± SD)” value (db/db mice; 10 nmol/kg, Day 17) was 18.91 ± 1.33 mmol/L and the “Concentration of fasting blood glucose (mMol/L, mean ± SD)” value (db/db mice; 10 nmol/kg, Day 21) was 7.89 ± 0.81 mmol/L. The “Concentration of random blood glucose (mMol/L, mean ± SD)” value (db/db mice; 10 nmol/kg, Day 24) was 21.17 ± 2.07 mmol/L, the “Concentration of fasting blood glucose (mMol/L, mean ± SD)” value (db/db mice; 10 nmol/kg, Day 28) was 9.41 ± 0.97 mmol/L and the “Glycated hemoglobin (%, mean ± SD)” value (db/db mice; 10 nmol/kg) was 4.71 ± 0.23 %. For the same compound, the “Concentration of fasting blood glucose (mMol/L, mean ± SD)” value (db/db mice; 30 nmol/kg, Day 0) was 14.13 ± 1.32 mmol/L, the “Concentration of random blood glucose (mMol/L, mean ± SD)” value (db/db mice; 30 nmol/kg, Day 0) was 16.73 ± 1.59 mmol/L and the “Concentration of fasting blood glucose (mMol/L, mean ± SD)” value (db/db mice; 30 nmol/kg, Day 7) was 6.21 ± 0.26 mmol/L. The “Concentration of random blood glucose (mMol/L, mean ± SD)” value (db/db mice; 30 nmol/kg, Day 10) was 15.88 ± 1.86 mmol/L, the “Concentration of fasting blood glucose (mMol/L, mean ± SD)” value (db/db mice; 30 nmol/kg, Day 14) was 6.40 ± 0.57 mmol/L and the “Concentration of random blood glucose (mMol/L, mean ± SD)” value (db/db mice; 30 nmol/kg, Day 17) was 17.30 ± 1.17 mmol/L. The “Concentration of fasting blood glucose (mMol/L, mean ± SD)” value (db/db mice; 30 nmol/kg, Day 21) was 7.03 ± 0.52 mmol/L, the “Concentration of random blood glucose (mMol/L, mean ± SD)” value (db/db mice; 30 nmol/kg, Day 24) was 17.43 ± 1.92 mmol/L and the “Concentration of fasting blood glucose (mMol/L, mean ± SD)” value (db/db mice; 30 nmol/kg, Day 28) was 9.68 ± 1.03 mmol/L. For the same compound, the “Glycated hemoglobin (%, mean ± SD)” value (db/db mice; 30 nmol/kg) was 4.53 ± 0.17 %, the “Concentration of fasting blood glucose (mMol/L, mean ± SD)” value (db/db mice; 100 nmol/kg, Day 0) was 14.67 ± 1.46 mmol/L and the “Concentration of random blood glucose (mMol/L, mean ± SD)” value (db/db mice; 100 nmol/kg, Day 0) was 9.11 ± 1.25 mmol/L. The “Concentration of fasting blood glucose (mMol/L, mean ± SD)” value (db/db mice; 100 nmol/kg, Day 7) was 5.85 ± 0.33 mmol/L, the “Concentration of random blood glucose (mMol/L, mean ± SD)” value (db/db mice; 100 nmol/kg, Day 10) was 12.34 ± 1.12 mmol/L and the “Concentration of fasting blood glucose (mMol/L, mean ± SD)” value (db/db mice; 100 nmol/kg, Day 14) was 6.25 ± 0.32 mmol/L. The “Concentration of random blood glucose (mMol/L, mean ± SD)” value (db/db mice; 100 nmol/kg, Day 17) was 11.89 ± 1.15 mmol/L, the “Concentration of fasting blood glucose (mMol/L, mean ± SD)” value (db/db mice; 100 nmol/kg, Day 21) was 6.13 ± 0.19 mmol/L and the “Concentration of random blood glucose (mMol/L, mean ± SD)” value (db/db mice; 100 nmol/kg, Day 24) was 11.51 ± 0.95 mmol/L. For the same compound, the “Concentration of fasting blood glucose (mMol/L, mean ± SD)” value (db/db mice; 100 nmol/kg, Day 28) was 7.89 ± 0.41 mmol/L, the “Glycated hemoglobin (%, mean ± SD)” value (db/db mice; 100 nmol/kg, listed as 18#) was 3.78% and the “Glycated hemoglobin (%, mean ± SD)” value (db/db mice; 100 nmol/kg, listed as #18) was 3.78 ± 0.13 %.
